Test results reported in patent publication US11485700B2, “Synthesis of (+)-cannabinoids and their therapeutic effects” (SYMRISE AG, priority 2018, dated 2022).
Like-named read-outs stand apart in the source and are kept apart here.

Legend:
[1] = test system: IL-1-treated human dermal fibroblasts; assay: IL-1-induced inflammatory parameters in human dermal fibroblasts; assay type: cell-based; conditions: IL-1beta 10 U/ml, 24 h; for inhibition of IL-1-induced PGE2 / inhibition of IL-1-stimulated IL-6 release / inhibition of IL-1-stimulated IL-8 release: maximal effect, doses up to 25 μM
Protocol: (§1) Cell cultures: Human primary monocytes were extracted from the whole blood of medically healthy volunteers, who provided written informed consent at the local blood bank (University Hospital of Freiburg, Germany), following a standardized protocol (gradient preparation, Lymphocytes separation medium, PAN Biotech, P04-60125, Aidenbach, Germany) using completely endotoxin-free cultivation. Using 50 ml tubes, 25 ml Pancoll was loaded with 25 ml of blood (buffy coats). The gradient was established by centrifugation at 1800 rpm, 20° C. for 40 min with slow acceleration and deceleration. Peripheral blood mononuclear cells in the interphase were carefully removed and re-suspended in 50 ml pre-warmed phosphate-buffered saline (PBS) (Pan Biotech, P04-36500), followed by centrifugation for 10 min at 1600 rpm and 20° C. The supernatant was discarded and the pellet washed in 50 ml PBS and centrifuged as described above. The pellet was then re-suspended in 50 ml RPMI-1640 low-endotoxin medium supplemented with 10% human serum (Hexcell, Berlin, Germany, SP2080). After counting the number of cells in a particle counter (Euro Diagnostics, Krefeld, Germany), cells were seeded in 24-well plates for enzyme linked immunosorbent assay (ELISA) (2.2 mio. cells/well) or 96-well plates at a density of 2×10^4 cells/well for cell viability testing, and incubated at 37° C. with 5% CO2. The medium and the non-adherent cells (lymphocytes) were removed and fresh RPMI-1640 medium containing 1% human serum added. Enriched monocytes were then ready to be used for the experiments. Primary human fibroblasts and HaCat keratinocytes were obtained from the Uniklinik Freiburg. All cells were maintained in supplemented DMEM (Invitrogen, Life-Technologies, Darmstadt, Germany) medium containing 10% FBS (Bio&Sell, Feucht, Germany) and 1% antibiotics penicillin/streptomycin (from Invitrogen, DMEM complete medium) at 37° C. in a humidified atmosphere of 5% CO2.
Determination of inflammatory molecules in fibroblasts: Primary human fibroblasts were cultivated as described above and seeded (500000 cells/well) in 24-well plates. Cells were incubated with IL-1beta (Roche, Mannheim, Germany, 10 U/ml) in absence and presence of the cannabinoids (5 doses, n=3) for 24 h. Unstimulated cells served as a negative control. 24 h after cell stimulation, supernatants were removed, centrifuged and investigated for IL-6, PGE2, and IL-8 concentrations by ELISAs according to the manufacturer's protocol (PGE2 from Cayman/Biomol, Hamburg, Germany; IL-6, and IL-8 from Immuno-tools, Frisoythe, Germany). The respective extinction is determined using a 96-well plate reader (Berthold, Offenburg, Germany).

primary human monocytes = assay: Cell viability in human monocytes (Alamar Blue); assay type: cell-based; conditions: 24 h
Protocol: Cell cultures: Human primary monocytes were extracted from the whole blood of medically healthy volunteers, who provided written informed consent at the local blood bank (University Hospital of Freiburg, Germany), following a standardized protocol (gradient preparation, Lymphocytes separation medium, PAN Biotech, P04-60125, Aidenbach, Germany) using completely endotoxin-free cultivation. Using 50 ml tubes, 25 ml Pancoll was loaded with 25 ml of blood (buffy coats). The gradient was established by centrifugation at 1800 rpm, 20° C. for 40 min with slow acceleration and deceleration. Peripheral blood mononuclear cells in the interphase were carefully removed and re-suspended in 50 ml pre-warmed phosphate-buffered saline (PBS) (Pan Biotech, P04-36500), followed by centrifugation for 10 min at 1600 rpm and 20° C. The supernatant was discarded and the pellet washed in 50 ml PBS and centrifuged as described above. […] Enriched monocytes were then ready to be used for the experiments. […]
Cell viability: Cells were incubated with the cannabinoids (3 doses, n=4) for 24 h. Cytotoxicity was analyzed by Alamar Blue staining (formazan). […] The plate was then incubated at 37° C. for 2 h in a humidified 5% CO2 atmosphere, and the color reaction determined using a 96-well plate reader (Berthold, Offenburg, Germany, excitation 544 nm, emission 590 nm). […]

[2] = test system: PolyIC-treated human keratinocytes (HaCat); assay: Poly I:C-induced proteases in human HaCat keratinocytes; assay type: cell-based; conditions: Poly I:C 10 μg/ml, 24 h; for inhibition at 25 µM: Homo sapiens, HaCaT; for inhibition of Poly I:C-stimulated TIMP1: maximal effect, doses up to 25 μM
Protocol: as §1
Determination of MMPs and TIMPs in keratinocytes: Keratinocytes (HaCat) were cultivated as described above. Cells were seeded in 24-well plates incubated with Poly I:C (InvivoGen, San Diego, Calif.; USA, 10 μg/ml) in absence and presence of the cannabinoids (5 doses, n=3) for 24 h. Unstimulated cells served as a negative control. 24 h after cell stimulation, supernatants were removed, centrifuged and investigated for MMP1, MMP9 and TIMP1 concentrations by ELISAs according to the manufacturer's protocol (from Biotechne, Wiesbaden, Germany). The respective extinction was determined using a 96-well plate reader (Berthold, Offenburg, Germany).

CB2 receptor [3] = molecular target: T1, CB2 receptor (Homo sapiens (Human), UniProt P34972); assay: In vitro binding to CB2 receptor, [3H]-CP55940 radioligand displacement
Protocol: (§2) Compounds with an expected profile as CB1 and/or CB2 receptor ligands were evaluated by competition studies that allow determining the affinity of these compounds (Ki values) for both receptors against a classical cannabinoid ligand. The competition studies were conducted with membranes transfected with either CB1 or CB2 receptors. For stock solutions the compounds were dissolved at concentrations of 50 and 100 mM and stored at −20° C.
(§3) 96-well plates and the tubes necessary for the experiment were siliconized with Sigmacote (Sigma). Membranes were resuspended in the corresponding buffer and were incubated with the radioligand and each compound for 90 min at 30° C. Non-specific binding was determined with 10 μM WIN55212-2 and 100% binding of the radioligand to the membrane was determined by its incubation with membrane and without any compound. Filtration was performed by a Harvester®filtermate (Perkin-Elmer) with Filtermat A GF/C filters pretreated with polyethylenimine 0.05%. After filtering, the filter was washed nine times with binding buffer, dried and a melt-on scintillation sheet (Meltilex™ A, Perkin Elmer) was melted onto it. Then, radioactivity was quantified by a liquid scintillation spectrophotometer (Wallac MicroBeta Trilux, Perkin-Elmer).
(§4) Radioligand displacement assays were used to evaluate the affinity of the new compounds using membranes from cells (HEK293EBNA) transfected with the CB1 or the CB2 receptors and [^3H]-CP55940 as radioligand. The evaluation of the compounds was conducted in two phases. The first phase consisted in a simple screening with a unique and high concentration of each compound (40 μM). The data was collected from at least three experiments performed in triplicate. […] This consisted of a competition study with [^3H]CP55940 (0.10 nM for CB1 and 0.15 nM for CB2) and different concentrations of the selected compounds (10^−4-10^−11M). The data was analyzed, by using GraphPad Prism® version 5.01 (GraphPad Software Inc., San Diego, Calif., USA), for the calculation of Ki values expressed as mean±SEM of at least three experiments performed in triplicate for each point.

CB2 receptor [4] = molecular target: T1, CB2 receptor; assay: CB2 antagonistic activity, CRE-Luc assay in HEK 293T-CB2 cells; assay type: cell-based; conditions: WIN 55,212-2 repression of forskolin-induced CRE-Luc
Protocol: HEK 293T-CB1 and HEK 293T-CB2 cells (stably transfected with CB1 and CB2 cDNAs) (10^5/ml) were incubated in 24-well plates and transiently transfected with 0.5 μg/ml of the plasmid CRE-Luc that contains six consensus cAMP responsive elements (CRE) linked to firefly luciferase. Transient transfections were performed with Rotifect (Carl Roth GmbH, Karlsruhe, Germany) according to the manufacturer's instructions and harvested 24 h after transfection.
For CB2 antagonistic activity in cells the potential repression of Forskolin-induced CRE-luc inhibition induced by the compounds was analyzed.
After six hours of stimulation the cells were lysed (in 25 mM Tris-phosphate pH 7.8, 8 mM MgCl2, 1 mM DTT, 1% Triton X-100, and 7% glycerol) and luciferase activity was measured using an Autolumat LB 9501 (Berthold Technologies, Bad Wildbad, Germany) following the instructions of the luciferase assay kit (Promega, Madison, Wis.). The background obtained with the lysis buffer was subtracted in each experimental value, and the specific transactivation expressed as fold induction over basal levels (CRE-Luc).
The potential antagonistic activities of the compounds on the CB2 receptor were studied in the following. […] The negative control (untreated cells, 0% activation) is not listed.

CB1 receptor = CB1 receptor (Homo sapiens (Human), UniProt P21554); assay: In vitro binding to CB1 receptor, [3H]-CP55940 radioligand displacement; conditions: for CB1/CB2 selectivity: ratio of CB1-Ki to CB2-Ki
Protocol: as §2, §3, §4

[5] = test system: LPS-treated human monocytes; assay: LPS-induced inflammatory parameters in human monocytes; assay type: cell-based; conditions: for inhibition at 25 µM: Homo sapiens, Monocyte, maximal effect at 25 μM; for inhibition of LPS-induced IL-6 / inhibition of LPS-stimulated TNFalpha release: maximal effect, doses up to 25 μM
Protocol: as §1
Measurement of cytokines and PGE2 in primary human monocytes: Cells were incubated with LPS (Sigma-Aldrich, Taufkirchen, Germany, 10 ng/ml) for 24 h. The cannabinoids (5 doses) were added 30 min before LPS treatment. After 24 h, supernatants were removed, centrifuged and investigated for IL-1beta, IL-8, IL-6, TNFalpha, MMP9, isoprostane, and PGE2 concentrations in EIAs (PGE2 and isoprostane, from Cayman/Biomol, Hamburg, Germany) or ELISAs (IL-1beta, Hiss, Freiburg, Germany; TNFalpha, IL-6 and IL-8, ImmunoTools, Frysoithe, Germany, MMP9, Biotechne, Wiesbaden, Germany) using manufacturer's protocol. The respective extinction was determined using a 96-well plate reader (Berthold, Offenburg, Germany). Each dose was analyzed 4 times in two buffy coats from 2 different donors (2 buffy coats used from 2 different healthy blood donors with final n=4 values).

[6] = test system: IL-1-treated human dermal fibroblasts; assay: IL-1-induced inflammatory parameters in human dermal fibroblasts; assay type: cell-based; conditions: 24 h
[7] = read-out: inhibition of Poly I:C-induced MMP1
[8] = read-out: inhibition of Poly I:C-stimulated MMP9
[9] = LPS 10 ng/ml, 24 h, read-out: inhibition of LPS-stimulated PGE2 release

C=C(C)[C@H]1CCC(C)=C[C@@H]1c1c(O)cc(CCC)cc1O [(+)-CBDV, (+)-Cannabidivarin]
doses inhibiting IL-1-stimulated IL-6 release [1]: ≥ 5 µM
doses inhibiting IL-1-stimulated IL-8 release [1]: ≥ 5 µM
inhibition of IL-1-induced PGE2 [1]: more than 80%
doses affecting cell viability (primary human monocytes): ≥ 25 µM
doses enhancing Poly I:C-stimulated MMP1 [2]: 25 µM
Ki (CB2 receptor [3]): 33.1 nM

COc1ccc(C(=O)c2c(C)n(CCN3CCOCC3)c3cc(I)ccc23)cc1 [AM630]
CB2 antagonistic activity (CB2 receptor [4]): prevented

C=C(C)[C@H]1CCC(C)=C[C@@H]1c1c(O)cc(CCCCC)c(C(=O)OCC(O)CCC)c1O (single isomer, unassigned; (+)) [(+)-CBD-HPE, (+)-Cannabidiol hydroxypentylester]
doses inhibiting IL-1-induced PGE2 [1]: 25 µM
doses inhibiting IL-1-stimulated IL-6 release [1]: ≥ 10 µM
doses inhibiting IL-1-stimulated IL-8 release [1]: ≥ 10 µM
inhibition of IL-1-induced PGE2 [1]: 50%
inhibition of IL-1-stimulated IL-6 release [1]: 95%
inhibition of IL-1-stimulated IL-8 release [1]: 95%
Ki (CB1 receptor): 3.1 nM
CB1/CB2 selectivity (CB1 receptor): 3.9
doses increasing LPS-mediated IL-1beta ([5]; LPS 10 ng/ml, 24 h): 25 µM
doses inhibiting LPS-induced IL-6 ([5]; LPS 10 ng/ml, 24 h): ≥ 10 µM
doses inhibiting LPS-induced IL-8 ([5]; LPS 10 ng/ml, 24 h): 25 µM
doses inhibiting LPS-stimulated MMP9 ([5]; LPS 10 ng/ml, 24 h): 25 µM
inhibition at 25 µM [2, 7]: 20%
inhibition at 25 µM [2, 8]: 40%
inhibition of Poly I:C-stimulated TIMP1 [2]: 60%
Ki (CB2 receptor [3]): 0.8 nM

C=C(C)[C@H]1CCC(C)=C[C@@H]1c1c(O)cc(CCCCC)c(C(=O)OCCO)c1O [(+)-CBD-GE, (+)-Cannabidiol glycolester]
doses inhibiting IL-1-induced PGE2 [1]: ≥ 5 µM
doses inhibiting IL-1-stimulated IL-6 release [1]: ≥ 5 µM
doses inhibiting IL-1-stimulated IL-8 release [1]: ≥ 5 µM
inhibition of IL-1-induced PGE2 [1]: approx. 80%
inhibition of IL-1-stimulated IL-6 release [1]: around 95%
inhibition of IL-1-stimulated IL-8 release [1]: around 95%
inhibition at 25 µM ([5]; LPS 10 ng/ml, 24 h, read-out: inhibition of LPS-stimulated IL-1 release): ~40%
inhibition at 25 µM [5, 9]: ~80%
inhibition at 25 µM ([5]; LPS 10 ng/ml, 24 h, read-out: inhibition of LPS-stimulated isoprostane release): ~40%
doses inhibiting LPS-induced IL-6 ([5]; LPS 10 ng/ml, 24 h): ≥ 0.1 µM
doses inhibiting LPS-stimulated IL-1 release ([5]; LPS 10 ng/ml, 24 h): ≥ 0.1 µM
doses inhibiting LPS-stimulated PGE2 release ([5]; LPS 10 ng/ml, 24 h): ≥ 0.1 µM
doses inhibiting LPS-stimulated TNFalpha release ([5]; LPS 10 ng/ml, 24 h): ≥ 0.1 µM
doses inhibiting LPS-stimulated isoprostane release ([5]; LPS 10 ng/ml, 24 h): ≥ 0.1 µM
inhibition of LPS-induced IL-6 ([5]; LPS 10 ng/ml, 24 h): around 80%
inhibition of LPS-stimulated TNFalpha release ([5]; LPS 10 ng/ml, 24 h): approx. 40%
enhancement of LPS-mediated MMP9, more than LPS values ([5]; doses of 5-25 μM): 20-60%
inhibition at 25 µM [2, 8]: 30 to 50%
inhibition of Poly I:C-stimulated TIMP1 [2]: 30-50%
Ki (CB2 receptor [3]): 12.9 nM

C=C(C)[C@H]1CCC(C)=C[C@@H]1c1c(O)cc(CCCCC)c(C(=O)OC)c1O [(+)-CBD-ME, (+)-Cannabidiol methylester]
Ki (CB1 receptor): 345 nM
CB1/CB2 selectivity (CB1 receptor): 12.3
doses increasing LPS-induced IL-8 ([5]; LPS 10 ng/ml, 24 h): 5 to 25 µM
doses increasing LPS-mediated IL-1beta ([5]; LPS 10 ng/ml, 24 h): 25 µM
inhibition of LPS-induced IL-6 ([5]; LPS 10 ng/ml, 24 h): around 20%
inhibition of LPS-stimulated TNFalpha release ([5]; LPS 10 ng/ml, 24 h): around 20%
dose that seems to be toxic in fibroblasts [6]: 25 µM
inhibition of Poly I:C-stimulated TIMP1 [2]: 40%
Ki (CB2 receptor [3]): 28 nM

C=C(C)[C@H]1CCC(C)=C[C@@H]1c1c(O)cc(CCCCC)cc1O [(+)-CBD, (+)-Cannabidiol]
doses inhibiting IL-1-stimulated IL-6 release [1]: ≥ 0.1 µM
doses inhibiting IL-1-stimulated IL-8 release [1]: ≥ 0.1 µM
inhibition of IL-1-induced PGE2 [1]: more than 80%
inhibition of IL-1-stimulated IL-6 release [1]: more than 90%
inhibition of IL-1-stimulated IL-8 release [1]: more than 90%
inhibition at 25 µM [5, 9]: ~80%
doses inhibiting LPS-induced IL-8 ([5]; LPS 10 ng/ml, 24 h): 25 µM
doses inhibiting LPS-stimulated PGE2 release ([5]; LPS 10 ng/ml, 24 h): ≥ 1 µM
doses inhibiting LPS-stimulated TNFalpha release ([5]; LPS 10 ng/ml, 24 h): ≥ 0.1 µM
inhibition of LPS-stimulated TNFalpha release ([5]; LPS 10 ng/ml, 24 h): around 80%
doses affecting cell viability (primary human monocytes): ≥ 25 µM
inhibition at 25 µM [2, 7]: ~40%
inhibition at 25 µM [2, 8]: ~40%
doses inhibiting Poly I:C-induced MMP1 [2]: 25 µM
doses inhibiting Poly I:C-stimulated MMP9 [2]: ≥ 5 µM
doses inhibiting Poly I:C-stimulated TIMP1 [2]: ≥ 5 µM
inhibition of Poly I:C-stimulated TIMP1 [2]: ~70%
